Measured values taken from patent US20080299108A1, “Peptides for Diagnostic and Therapeutic Methods for Celiac Sprue” (priority 2005, published 2008).

Experiments:
[1] = test system: pancreatic proteases (elastase, trypsin, chymotrypsin); assay type: in vitro ADME
From the text: Because BBM exopeptidases are restricted to N- or C-terminal processing, it was investigated if generation of additional free peptide ends by pancreatic enzymes would accelerate digestion.

[2] = target: T1, tissue transglutaminase (tTGase) (Homo sapiens, UniProt P21980); conditions: cited from earlier work
T1 sequence (P21980 1-687): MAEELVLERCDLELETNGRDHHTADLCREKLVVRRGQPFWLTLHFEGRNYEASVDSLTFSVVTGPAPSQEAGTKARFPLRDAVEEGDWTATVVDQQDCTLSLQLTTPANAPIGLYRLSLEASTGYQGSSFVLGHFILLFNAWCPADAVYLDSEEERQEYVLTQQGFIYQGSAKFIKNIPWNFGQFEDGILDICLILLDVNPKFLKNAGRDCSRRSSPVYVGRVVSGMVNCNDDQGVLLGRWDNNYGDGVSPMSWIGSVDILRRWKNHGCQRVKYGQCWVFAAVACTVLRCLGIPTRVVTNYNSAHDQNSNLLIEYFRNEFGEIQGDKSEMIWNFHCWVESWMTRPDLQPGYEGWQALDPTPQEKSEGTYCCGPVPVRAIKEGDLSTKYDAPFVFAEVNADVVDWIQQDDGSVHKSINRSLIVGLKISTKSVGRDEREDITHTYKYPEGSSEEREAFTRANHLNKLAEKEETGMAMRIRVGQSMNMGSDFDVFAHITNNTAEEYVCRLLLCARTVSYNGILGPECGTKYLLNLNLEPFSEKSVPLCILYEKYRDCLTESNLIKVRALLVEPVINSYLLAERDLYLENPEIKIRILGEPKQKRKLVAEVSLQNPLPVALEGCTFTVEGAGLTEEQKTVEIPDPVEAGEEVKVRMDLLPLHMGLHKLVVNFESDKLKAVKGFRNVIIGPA

Sequence: PQPQLPYPQPQLPY
- proteolysis with trypsin or chymotrypsin [1]: No proteolysis was detected
- hydrolysis by elastase ([1]; elastase at a high (non-physiological) concentration of 100 ng/μl): capable of hydrolyzing
- specificity of tTGase relative to its target peptide sequence in fibrinogen [2]: 5 fold
